Source: ChEMBL document CHEMBL4680330, “Soloxolone methyl, as a 18βH-glycyrrhetinic acid derivate, may result in endoplasmic reticulum stress to induce apoptosis in breast cancer cells” (Bioorg Med Chem, 2021)

What was measured:
MDA-MB-231 [1] = assay: Induction of apoptosis in human MDA-MB-231 cells assessed as pro-caspase 3 level at 4.39 uM incubated for 24 hrs by Western blot analysis (reference value: 1); format: functional
MDA-MB-231 [2] = assay: Induction of endoplasmic reticulum stress in human MDA-MB-231 cells assessed as BIP expression at 4.39 uM incubated for 24 hrs by Western blot analysis (reference value: 1); format: functional
MDA-MB-231 [3] = assay: Induction of endoplasmic reticulum stress in human MDA-MB-231 cells assessed as IRE1-alpha expression at 4.39 uM incubated for 24 hrs by Western blot analysis (reference value: 1); format: functional
MDA-MB-231 [4] = assay: Induction of apoptosis in human MDA-MB-231 cells assessed as cleaved pro-caspase 8 level at 4.39 uM incubated for 24 hrs by Western blot analysis (reference value: 1); format: functional
MDA-MB-231 [5] = assay: Induction of endoplasmic reticulum stress in human MDA-MB-231 cells assessed as CHOP expression at 4.39 uM incubated for 24 hrs by Western blot analysis (reference value: 1); format: functional
MDA-MB-231 [6] = assay: Induction of apoptosis in human MDA-MB-231 cells assessed as PARP level at 4.39 uM incubated for 24 hrs by Western blot analysis (reference value: 1); format: functional
MDA-MB-231 [7] = assay: Induction of apoptosis in human MDA-MB-231 cells assessed as pro-caspase 8 level at 4.39 uM incubated for 24 hrs by Western blot analysis (reference value: 1); format: functional
MDA-MB-231 [8] = assay: Induction of apoptosis in human MDA-MB-231 cells assessed as cleaved pro-caspase 3 level at 4.39 uM incubated for 24 hrs by Western blot analysis (reference value: 1); format: functional
MDA-MB-231 [9] = assay: Induction of apoptosis in human MDA-MB-231 cells assessed as cleaved PARP level at 4.39 uM incubated for 24 hrs by Western blot analysis (reference value: 1); format: functional
[10] = system: Epidermoid carcinoma cell line; assay: Cytotoxicity against human Epidermoid carcinoma cell line; format: functional, cell-based
MCF7 = assay: Cytotoxicity against human MCF7 cells assessed as reduction in cell viability incubated for 48 hrs by ATP based luminometry; format: functional; details: MCF7, 48 h

COc1cccc2c1C(=O)c1c(O)c3c(c(O)c1C2=O)C[C@@](O)(C(=O)CO)C[C@@H]3O[C@H]1C[C@H](N)[C@H](O)[C@H](C)O1 [DOXORUBICIN]
fold change (FC) (MDA-MB-231 [1]): 2.5
fold change (FC) (MDA-MB-231 [2]): 0.1
fold change (FC) (MDA-MB-231 [3]): 0.1
fold change (FC) (MDA-MB-231 [4]): 0.6
fold change (FC) (MDA-MB-231 [5]): 0.3
fold change (FC) (MDA-MB-231 [6]): 0.2
fold change (FC) (MDA-MB-231 [7]): 0.3
fold change (FC) (MDA-MB-231 [8]): 2
fold change (FC) (MDA-MB-231 [9]): 23.2

CC1(C)[C@@H](O)CC[C@]2(C)[C@H]3C(=O)C=C4[C@@H]5C[C@@](C)(C(=O)O)CC[C@]5(C)CC[C@@]4(C)[C@]3(C)CC[C@@H]12 [ENOXOLONE]
IC50 [10]: ≥ 0.3 µM
IC50 (MCF7): 32.6 µM
